These results are taken from patent US7354935B2, “Radiolabeled neurokinin-1 receptor antagonists” (Merck & Co. Inc., priority 2002, dated 2008).

Data set [1] in a line: Percent of parent tracer remaining in monkey plasma (plasma half-life comparison, TLC/gamma counting). As to conditions: for % parent tracer remaining in monkey plasma / Amount of tracer remaining in plasma relative to the protonated tracer: rhesus monkey; for Amount of tracer remaining in plasma relative to the protonated tracer: versus Compound A. In kind it is in vivo, rhesus monkey. As for the experimental part: To compare the plasma half-life of [^18F][2-fluoromethoxy-5-(5-trifluoromethyl-tetrazol-1-yl)-benzyl]-([2S,3S]-2-phenyl-piperidin-3-yl)-amine (Compound A) and [^18F][2-fluorodideuteromethoxy-5-(5-trifluoromethyl-tetrazol-1-yl)-benzyl]-([2S,3S]-2-phenyl-piperidin-3-yl)-amine (Compound B) in rhesus monkey, ˜5 mCi of each radiotracer (in saline) was injected by iv into an anesthetized monkey. At various time points, whole blood was drawn, mixed with 0.02 mL of acetonitrile and centrifuged for 3-5 minutes at 5000 rpm. A 0.02 mL aliquot of the acetonitrile extract was spotted on a 5×7 cm TLC plate along with the cold standard and developed using 60:40:0.1 ethyl acetate:methanol:triethylamine. The TLC plate was cut into four sections pertaining to the origin, to determine the amount of fluoride present, the section between the origin and where the standard eluted, to determine polar metabolites, the section where the parent compound eluted, to determine the amount of parent compound remaining, and the area between the parent compound and the solvent front for nonpolar metabolites. The TLC strips were then counted in a gamma counter to determine the number of counts for each section of TLC plate. The percentage of the total counts that were due to the remaining parent compound was determined. […] With the higher prolonged plasma levels of the deuterated tracer, more time is available for a larger specific signal to develop, and for the tracer to accumulate in brain regions that have a low receptor concentration and could be difficult to image using the protonated tracer.

Data set [2] in a line: Brain levels of the tracer. In kind it is in vivo. To be noted: comparison in words.
The target in data set [3] is T1, NK1 receptor (Macaca mulatta, UniProt F7GQV6).
T1 construct: from tissue; host or cells: brain (striatum and other regions) of a living rhesus monkey, PET imaging
Briefly: Chase study with an unlabelled NK1 antagonist, PET regions of interest (chaseability). The format is in vivo, rhesus monkey. To be noted: for Remaining Specific Binding in Rhesus Monkey after 1 mpk Chase at 180 Minutes with an NK1 Antagonist: striatum minus cerebellum. As for the experimental part:
A bolus of an unlabelled NK1 antagonist was administered 180 minutes after a bolus injection of either tracer. From the resulting images, regions of interest were drawn to determine the amount of radioactivity present in different brain regions. […] Also, using the 70% level of chase as a comparison (30% remaining specific binding), the fluoroethoxy compound reaches this level ˜50 minutes before the dideuterofluoromethoxy analog reaches this same level. Because the fluoroethoxy compound [^18F][2-fluoroethoxy-5-(5-trifluoromethyl-tetrazol-1-yl)-benzyl]-([2S,3S]-2-phenyl-piperidin-3-yl)-amine chases from the striatum faster than the fluoromethoxy analog, a more accurate picture of what the true receptor occupancy is can be obtained using the fluoroethoxy analog.

[4] abbreviates: 5 minutes after iv injection of ~5 mCi.
Where [5] appears, read: 15 minutes after iv injection of ~5 mCi.
Where [6] appears, read: 30 minutes after iv injection of ~5 mCi.
The mark [7] stands for this setting: 45 minutes after iv injection of ~5 mCi.
The mark [8] stands for this setting: 60 minutes after iv injection of ~5 mCi.
The mark [9] stands for this setting: 120 minutes after iv injection of ~5 mCi.
Setting [10] is: 180 minutes after iv injection of ~5 mCi.

T1 sequence (F7GQV6 1-407): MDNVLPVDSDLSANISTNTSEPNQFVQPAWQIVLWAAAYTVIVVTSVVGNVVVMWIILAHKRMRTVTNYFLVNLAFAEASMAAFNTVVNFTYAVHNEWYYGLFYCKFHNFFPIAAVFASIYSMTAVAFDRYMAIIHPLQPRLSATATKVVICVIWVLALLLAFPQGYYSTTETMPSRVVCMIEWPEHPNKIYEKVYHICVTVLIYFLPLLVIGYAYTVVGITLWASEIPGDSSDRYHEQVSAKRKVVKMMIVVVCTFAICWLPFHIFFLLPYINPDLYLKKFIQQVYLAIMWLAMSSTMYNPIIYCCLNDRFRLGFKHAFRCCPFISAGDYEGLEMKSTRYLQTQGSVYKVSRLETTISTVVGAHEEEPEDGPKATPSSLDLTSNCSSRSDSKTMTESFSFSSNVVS

For `FC(F)(F)c1nnnn1-c1ccc(OC[18F])c(CN[C@H]2CCCN[C@H]2c2ccccc2)c1` [Compound A, [^18F][2-fluoromethoxy-5-(5-trifluoromethyl-tetrazol-1-yl)-benzyl]-([2S,3S]-2-phenyl-piperidin-3-yl)-amine, reference compound], the “% parent tracer remaining in monkey plasma” value (from here on “% parent tracer remaining”) in data set [1] (setting [4]) amounted to 72%; in data set [1] (setting [5]) it was 55%; in data set [1] (setting [6]), 38%; in data set [1] (setting [7]) it was 35%; in data set [1] (setting [8]), 25%; in data set [1] (setting [9]) it was 16%. Also, the “% parent tracer remaining” value in data set [1] (setting [10]) is 9%.

Consider `[2H]C([2H])([18F])Oc1ccc(-n2nnnc2C(F)(F)F)cc1CN[C@H]1CCCN[C@H]1c1ccccc1` [Compound B, [^18F][2-fluorodideuteromethoxy-5-(5-trifluoromethyl-tetrazol-1-yl)-benzyl]-([2S,3S]-2-phenyl-piperidin-3-yl)-amine], for which the “Brain levels of the tracer relative to the [18F]fluoromethoxy compound” value in data set [2] is “relatively higher brain levels”. Also, the “Remaining Specific Binding in Rhesus Monkey after 1 mpk Chase at 180 Minutes with an NK1 Antagonist” value in data set [3] (195 minutes after tracer) is given as approximately 96%; in data set [3] (205 minutes after tracer), approximately 85%; in data set [3] (230 minutes after tracer) it was approximately 55%; in data set [3] (270 minutes after tracer) it was approximately 30%. In addition, the “Time at which tracer begins to chase (is displaced from the receptor) after administration of the unlabelled antagonist” value in data set [3] (striatum, rhesus monkey) is given as “about 30 minutes”. Further, the “% parent tracer remaining” value is 91% in data set [1] (setting [4]); 87% in data set [1] (setting [5]); 75% in data set [1] (setting [6]); 39% in data set [1] (setting [7]); 41% in data set [1] (setting [8]); 23% in data set [1] (setting [9]). In addition, in data set [1] (setting [10]), the “% parent tracer remaining” value came to 20%. Moreover, the “Amount of tracer remaining in plasma relative to the protonated tracer” value in data set [1] (all time points examined) was “more of the deuterated tracer remaining in the plasma than the protonated tracer”; in data set [1] (end of the experiment (3 hours)), “twice as much”. Moreover, the “Metabolic stability relative to the [18F]fluoromethoxy compound of U.S. Pat. No. 6,241,964” value in data set [1] (comparison in words) is reported as “metabolically more stable”. The “Plasma half-life relative to the [18F]fluoromethoxy compound of U.S. Pat. No. 6,241,964” value in data set [1] (comparison in words) is on record as “longer plasma half-life”.

Regarding `FC(F)(F)c1nnnn1-c1ccc(OCC[18F])c(CN[C@H]2CCCN[C@H]2c2ccccc2)c1` [Compound C, [^18F][2-fluoroethoxy-5-(5-trifluoromethyl-tetrazol-1-yl)-benzyl]-([2S,3S]-2-phenyl-piperidin-3-yl)-amine], the results for the “Remaining Specific Binding in Rhesus Monkey after 1 mpk Chase at 180 Minutes with an NK1 Antagonist” value in data set [3] (195 minutes after tracer), in data set [3] (205 minutes after tracer) and in data set [3] (220 minutes after tracer) were approximately 85%, approximately 55% and approximately 30%, respectively. In addition, the “Time at which tracer begins to chase (is displaced from the receptor) after administration of the unlabelled antagonist” value in data set [3] (striatum, rhesus monkey) is on record as “almost immediately”. The “Time by which the 70% level of chase (30% remaining specific binding) is reached before the dideuterofluoromethoxy analog” value in data set [3] (striatum, rhesus monkey, versus Compound B) is listed as approximately 50 minutes.

Consider “[^18F][2-fluoroethoxy-5-(5-trifluoromethyl-tetrazol-1-yl)-benzyl]-([2S,3S]-2-phenyl-piperidin-3-yl)-amine [Compound C]”, for which the “Displacement from the NK1 receptor when unlabelled compounds are administered, relative to the [18F]fluoromethoxy compound” value in data set [3] (comparison in words) was “faster”.
